The text below walks through data of patent publication US10253002B2, “Compounds and methods of treating infections” (Neoculi Pty Ltd., priority 2013, dated 2019).

In brackets after ≈: the same amount, converted by molar mass.

In data set [1] the test system is protein synthesis in S. aureus ATCC 29213. The experiment in a line: Macromolecular synthesis assay: protein synthesis ([3H] leucine). In kind it is cell-based, Staphylococcus aureus. Conditions: 8 fold the MIC (2 μg/mL). On the procedure: Cells were grown at 35° C. overnight on Trypticase Soy agar. A colony from the plate was used to inoculate 10 ml of Mueller Hinton broth II (MHBII), and the culture was grown to early exponential growth phase (OD600==0.2 to 0.3) while incubating in a shaker at 35° C. and 200 rpm.
When cells reached early exponential phase, 100 μL of culture was added to triplicate wells containing various concentrations of test compound or control antibiotics (5 μL) at 20× the final concentration in 100% DMSO. A 5% DMSO treated culture served as the “no drug” control for all experiments. Cells were added in MHBII at 105% to account for the volume of drug added to each reaction or in M9 minimal medium for protein synthesis reactions. Following 15 min incubation at room temperature, either [^3H] thymidine (DNA synthesis), [^3H] uridine (RNA synthesis) or [^3H] leucine (protein synthesis) was added at 0.5-1.0 μCi per reaction, depending on the experiment. Reactions were allowed to proceed at room temperature for 15-30 min and then stopped by adding 12 μL of cold 5% trichloroacetic acid (TCA) or 5% TCA/2% casamino acids (protein synthesis only). […] After washing three times with 5 ml of cold 5% TCA, the filters were rinsed two times with 5 mL 100% ethanol, allowed to dry, and then counted using a Beckman LS3801 liquid scintillation counter.

For data set [2], the system named is S. aureus ATCC 29213. Briefly: MIC testing (CLSI M07-A8, MHB II), Example 2. In kind it is cell-based. Conditions: ATCC29213, Staphylococcus aureus ATCC 29213.
From the text: The medium employed for the MIC assay was Mueller Hinton II Broth (MHB II-Becton Dickinson, Sparks, Md.; Cat No 212322; Lot 9044411). S. aureus ATCC 29213 served as the quality control strain, and linezolid was utilized as the quality control antibiotic to validate the assay.
Data set [3] relates to S. aureus ATCC 29213. Conditions: Staphylococcus aureus ATCC 29213; CLSI-established; cited from earlier work.
In data set [4] the test system is MRSA. The experiment in a line: Broth microdilution MIC, Example 7 (NCL812 and analogues). In kind it is cell-based, Staphylococcus aureus. The essentials:
(§1)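 Duplicates per isolate, repeated a third time if >one two-fold dilution apart. MIC50, MIC20 and range calculated per bacterial group.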
A general note: Broth dilution looks for growth in wells or tubes with falling amounts of substance.

Data set [5] can be described thus: Bioassay ranking of the analogues tested. The note with it: M + R (MRSA and VRE combined).
Data set [6] is described as follows: Release from Formulation B, Franz diffusion cells. In kind it is physicochemical. The note with it: absolute ethanol receptor, 32±1° C., up to 24 hours. On the procedure: Franz diffusion cells were utilized to quantify the release rate of NCL 812 and NCL099 from its topical formulations. Five milliliters of absolute ethanol, which was chosen as the desired release medium, was loaded into the receptor chamber. Temperature of the receptor fluid was kept constant, at 32±1° C. using a water jacket. Acetyl cellulose membranes, with pore size of 0.45 μm (Pall Corporation) was selected and placed between donor and receptor chamber. Followed by that, a number of test samples (Formulation B) was loaded into the donor chamber. One milliliter of receptor fluid was collected at regular time intervals of 0.25, 0.50, 0.75, 1, 2, 3, 4, 5, 6, 7, 8 and 24 hours through the sampling port. One milliliter of fresh absolute ethanol was immediately returned to the receptor chamber. UV-HPLC was utilized to analyse the content of the receptor fluids attained.

The next data set relates to Escherichia coli. Briefly: Broth microdilution MIC, Example 7 (NCL812 and analogues). Conditions: E. coli; 24 hours; duplicate lines per compound. The format is cell-based.
A further data set has as its system VRE. Described as above. The format is cell-based, Enterococcus spp. The procedure, abridged:
as §1

A further data set deals with Pseudomonas aeruginosa. The data set is described as above. The format is cell-based. Conditions: P. aeruginosa; 24 hours; duplicate lines per compound.
A further data set deals with Staphylococcus aureus. The experiment in a line: Mouse skin wound infection model, topical treatment. In kind it is in vivo, mice. Conditions: 14 treatments. The source says: Preliminary studies prior to the conduct of the current study established a new method of skin infection arising from a detailed study of the models mentioned above. Briefly, study mice are anaesthetised, a patch of dorsal skin is clipped to reveal the skin and a circular area of skin is removed with a hand held punch, leaving a wound on the dorsum with a central cavity. The wound is infected with a known number of the challenge organism. Approximately four to six hours after infection, the wound is either treated topically with a vehicle formulation or an active formulation. The infected skin wound is retreated every 12 hours for a total of 14 treatments. Mice are humanely euthanased, the area of the original infected wound is dissected and removed and its bacterial content quantified by standard microbiologic tests. In this way, the change in bacterial concentration due to treatment with the active formulation can be readily determined by examining the reduction in bacterial burden compared with the vehicle control. Fresh cultures of bacteria (Staphylococcus aureus) were grown on Sheep Blood Agar at 37° C. for 16-18 hours. A few typical colonies were selected and suspended in 10 ml of Tryptic Soy Broth and incubated overnight in a shaking incubator (240 rpm) at 37° C. The overnight suspension was vortexed and diluted (1:100) in fresh Tryptic soy broth (100 μl [0.1 ml] in 9.9 ml broth). The fresh suspension was incubated for 3 hours in a shaking incubator (as above) in order to obtain mid-logarithmic phase bacteria. Bacteria were pelleted through centrifugation at 7,500 rpm for 10 mins. Broth supernatant was removed and bacteria suspended in 10 ml Phosphate Buffered Saline (PBS). These steps were repeated a further two times. The density of the suspension was checked by measuring absorbance at 600 nm, using a spectrophotometer with saline as a blank, to confirm the target density at a reading of approximately 0.100, consistent with a bacterial density of 2.5×10^7 CFU/ml. The suspension was placed into a rack placed into a lockable transport box with an ice brick to maintain refrigeration during transport, followed by storage in cool room upon arrival at the mouse skin infection laboratory. Final suspension was mixed thoroughly before inoculating the skin wounds created in mice. […] Eyes of each anaesthetised mouse were covered with veterinary eye lubricant in order to prevent corneal dehydration. Each mouse removed from induction chamber and placed onto surgical area, in front of individual aesthetic nose cone. While under anaesthesia each mouse was monitored for assessment of depth of anaesthesia (response to pain, blink reflex, skeletal muscle tone) and respiratory and cardiac function. Back skin hair was shaved from surgical area with mechanical clippers. […] Once the iodine solution was dry, a subcutaneous injection of the nonsteroidal anti-inflammatory agent meloxicam was administered. Dorsal skin was pinched gently to allow creation of a circular full-thickness wound using ear punch/biopsy punch. […] Once the bacterial suspension was dry, mice were placed into individual recovery boxes labelled with the mouse number. The time of inoculation was recorded. Initial body weights of each mouse were recorded on the appropriate score sheet. Mice recovered to full consciousness within 5 minutes. Recovered mice were returned to individual housing and monitored hourly for post-surgical or anaesthetic complications. […] Each ointment container was weighted prior to administration and the weight recorded. Each mouse was carefully restrained. […] The weight of the ointment container post-administration was recorded. […] At the end of the 7 day skin wound assessment period, all test mice were euthanased prior to wound collection for post mortem examination. The skin wound was dissected from the dorsum of each mouse. The sample was placed in a sample tube and weighed before 1 ml PBS and sterile tissue homogenisation beads were added. […]

The subject of data set [7] is MRSA. Conditions: within an hour of exposure to a concentration equivalent to the Cmax; McKay et al. (2009); cited from earlier work.

By MIC is commonly meant the smallest concentration in the dilution series that meets the test's criterion for growth inhibition. A higher MIC goes with weaker potency.

Take `CC(=O)NC[C@H]1CN(c2ccc(N3CCOCC3)c(F)c2)C(=O)O1` [Linezolid]: in [1], the “inhibition of protein synthesis” value is reported as “approximately 61%”. In the data set on S. aureus ATCC 29213 [2], this compound gave an MIC of 4 µg/mL (≈ 11.9 µM). For the same compound, the “Quality control range for linezolid (MIC)” value with S. aureus ATCC 29213 [3] was 1 to 4 µg/mL.

In the case of `CC(C)(C)c1ccc(C=NNC(=N)NN=Cc2ccc(C(C)(C)C)cc2)cc1.Cl` [NCL099], in the data set on MRSA [4] (MIC testing, two MRSA strains), the “activity against MRSA among analogues” value is “greatest activity”. In addition, in the data set with MRSA [4] (MRSA 1, 24 hours, duplicate lines per compound), the “MIC (μg/ml) at 24 hours, MRSA 1” value worked out at 8 µg/mL. Also, the “MIC (μg/ml) at 24 hours, MRSA 2” value against MRSA [4] (MRSA 2, 24 hours, duplicate lines per compound) is 4 µg/mL. In addition, the MRSA in the data set with MRSA [4] (bioassay ranking, MRSA) came out at 6 µg/mL. The “M + R” value in data set [5] came to 7 µg/mL. Further, the “release profile from Formulation B” value in data set [6] was “acceptable release profile”. For the same compound, the “MIC (μg/ml) at 24 hours, E. coli” value in the data set with Escherichia coli was >128 µg/mL. Also, the “activity against VRE among analogues” value with VRE (MIC testing, two VRE strains) was “greatest activity”. Besides, the “MIC (μg/ml) at 24 hours, VRE 1” value in the data set with VRE (VRE 1, 24 hours, duplicate lines per compound) was found to be 8 µg/mL. Also, the “MIC (μg/ml) at 24 hours, VRE 2” value in the data set with VRE (VRE 2, 24 hours, duplicate lines per compound) amounted to 8 µg/mL. Moreover, the VRE with VRE (bioassay ranking, VRE) came to 8 µg/mL. For the same compound, the “MIC (μg/ml) at 24 hours, P. aeruginosa” value against Pseudomonas aeruginosa was >128 µg/mL. The “mean colony count per g of tissue, log10” value with Staphylococcus aureus (mice, Formulation B 20 mg/g topically every 12 hours, vehicle 6.77) is reported as 3.12 log10. Besides, the “mean colony count per g of tissue” value in the data set with Staphylococcus aureus (mice, Formulation B 20 mg/g topically every 12 hours, vehicle 5,888,436) is reported as 1,318. For the same compound, the “% reduction (of colony forming units per gram of tissue versus vehicle)” value in the data set with Staphylococcus aureus (mouse skin wound infected with Staphylococcus aureus, topical ointment (Formulation B, 20 mg/g) every 12 hours, end of 7 day period, relative to vehicle group) is reported as 99.98%. Also, the “Log10 (CFU/g): colony forming units per gram of tissue” value with Staphylococcus aureus (mouse skin wound infected with Staphylococcus aureus, topical ointment (Formulation B, 20 mg/g) every 12 hours, wound tissue at end of 7 day period, group mean) is reported as 3.12 Log10 (CFU/g).

In the case of `CN[C@H](CC(C)C)C(=O)N[C@H]1C(=O)N[C@@H](CC(N)=O)C(=O)N[C@H]2C(=O)N[C@H]3C(=O)N[C@H](C(=O)N[C@H](C(=O)O)c4cc(O)cc(O)c4-c4cc3ccc4O)[C@H](O[C@H]3C[C@](C)(N)[C@@H](O)[C@H](C)O3)c3ccc(c(Cl)c3)Oc3cc2cc(c3O[C@@H]2O[C@H](CO)[C@@H](O)[C@H](O)[C@H]2O[C@H]2C[C@](C)(NCc3ccc(-c4ccc(Cl)cc4)cc3)[C@@H](O)[C@H](C)O2)Oc2ccc(cc2Cl)[C@H]1O` [oritavancin], in the data set on MRSA [7], the “reduction in viable count” value was 3 log10.
